Target: T1, recombinant His-tag Y220C p53 DBD protein (Homo sapiens, UniProt P04637, Y220C)
T1 construct: recombinant His-tag Y220C p53 DBD protein (amino acids #˜94-312)
Test: In vitro DNA binding activity assay (TR-FRET): binding of His-tag Y220C p53 DBD to biotin-labeled consensus DNA
Assay type: biochemical
Conditions: SC150 = concentration to increase DNA binding by […], His-tag Y220C p53 DBD, biotin-labeled consensus DNA

Y220C SC150 (μM) | SMILES
* (* = 0 μM ≤ SC150 < 0.1 μM) | CN1CC[C@@H](Nc2cccc3c2cc(-c2cc(CNC(=O)c4cnn(C(C)(C)C)c4)on2)n3CC(F)(F)F)[C@@H](F)C1 [Compound 554B, 1-tert-butyl-N-{[3-(4-{[(3S,4R)-3-fluoro-1-methylpiperidin-4-yl]amino}-1-(2,2,2-trifluoroethyl)-1H-indol-2-yl)-1,2-oxazol-5-yl]methyl}-1H-pyrazole-4-carboxamide]
* (* = 0 μM ≤ SC150 < 0.1 μM) | CN1CC[C@@H](Nc2cccc3c2cc(-c2cc(CNC(=O)c4csc(C(C)(C)O)c4)on2)n3CC(F)(F)F)[C@@H](F)C1 [Compound 555B, N-{[3-(4-{[(3S,4R)-3-fluoro-1-methylpiperidin-4-yl]amino}-1-(2,2,2-trifluoroethyl)-1H-indol-2-yl)-1,2-oxazol-5-yl]methyl}-5-(2-hydroxypropan-2-yl)thiophene-3-carboxamide]
* (* = 0 μM ≤ SC150 < 0.1 μM) | CN1CC[C@@H](Nc2cccc3c2cc(-c2noc(CNC(=O)c4cncn4CCF)n2)n3CC(F)(F)F)[C@@H](F)C1 [Compound 556B, N-{[3-(4-{[(3S,4R)-3-fluoro-1-methylpiperidin-4-yl]amino}-1-(2,2,2-trifluoroethyl)-1H-indol-2-yl)-1,2,4-oxadiazol-5-yl]methyl}-1-(2-fluoroethyl)-1H-imidazole-5-carboxamide]
* (* = 0 μM ≤ SC150 < 0.1 μM) | CN1CC[C@@H](Nc2cccc3c2cc(-c2noc(CNC(=O)c4ccc(N(C)C)nc4)n2)n3CC(F)(F)F)[C@@H](F)C1 [Compound 557B, 6-(dimethylamino)-N-{[3-(4-{[(3S,4R)-3-fluoro-1-methylpiperidin-4-yl]amino}-1-(2,2,2-trifluoroethyl)-1H-indol-2-yl)-1,2,4-oxadiazol-5-yl]methyl}pyridine-3-carboxamide]
* (* = 0 μM ≤ SC150 < 0.1 μM) | CN1CC[C@@H](Nc2cccc3c2cc(-c2noc(C(=O)NCC4CCOCC4)n2)n3CC(F)(F)F)[C@@H](F)C1 [Compound 558B, 3-(4-{[(3S,4R)-3-fluoro-1-methylpiperidin-4-yl]amino}-1-(2,2,2-trifluoroethyl)-1H-indol-2-yl)-N-[(oxan-4-yl)methyl]-1,2,4-oxadiazole-5-carboxamide]

— patent publication US11807644B2 (PMV Pharmaceuticals, Inc., priority 2020, dated 2023)
